This passage reports Activity, inhibition and Ki results from ChEMBL document CHEMBL5131388, “Discovery of novel brain-penetrant GluN2B NMDAR antagonists via pharmacophore-merging strategy as anti-stroke therapeutic agents” (Eur J Med Chem, 2022).

Test [1] is described as follows: Neuroprotective activity against NMDA-induced neurotoxicity in Sprague-Dawley rat hippocampal neurons assessed as increase in cell viability at 0.1 uM incubated for 18 hrs followed by NMDA addition and measured after 0.5 hrs by MTT assay. The format is functional, Hippocampal neurone. As to conditions: time 18.5 hrs. On the technique in general: Tetrazolium dyes change colour on reduction, which living cells bring about.

Test [2] in a line: Neuroprotective activity against NMDA-induced neurotoxicity in Sprague-Dawley rat hippocampal neurons assessed as increase in cell viability at 10 uM incubated for 18 hrs followed by NMDA addition and measured after 0.5 hrs by MTT assay. As to conditions: time 18.5 hrs. The format is functional, Hippocampal neurone.
The nature of test [3]: Neuroprotective activity against NMDA-induced neurotoxicity in Sprague-Dawley rat hippocampal neurons assessed as increase in cell viability at 1 uM incubated for 18 hrs followed by NMDA addition and measured after 0.5 hrs by MTT assay. The class given is functional, Hippocampal neurone. As to conditions: time 18.5 hrs.
The target in test [4] is Ionotropic glutamate receptor NMDA 1/2D (Homo sapiens) (UniProt Q05586+O15399). The test is described as follows: Antagonist activity at GluN1/GluN2D NMDA receptor (unknown origin) transfected in HEK293 cells assessed as inhibition of glycine induced current response at 10 uM in presence of L-glutamate by patch-clamp method. The class given is cell-based.
The target in test [5] is Glutamate NMDA receptor; GRIN1/GRIN2B (Homo sapiens) (UniProt Q05586+Q13224). The test is described as follows: Antagonist activity at GluN1/GluN2B NMDA receptor (unknown origin) transfected in HEK293 cells assessed as inhibition of glycine induced current response at 10 uM in presence of L-glutamate by patch-clamp method. The class given is cell-based. As to conditions: filed as antagonist.

For test [6], the target named is Ionotropic glutamate receptor NMDA 1/2C (Homo sapiens) (UniProt Q05586+Q14957). The test can be described thus: Antagonist activity at GluN1/GluN2C NMDA receptor (unknown origin) transfected in HEK293 cells assessed as inhibition of glycine induced current response at 10 uM in presence of L-glutamate by patch-clamp method. The format is cell-based. In general terms: In patch-clamp work, channel activity is measured electrically.

In test [7] the target is Glutamate NMDA receptor; GRIN1/GRIN2A (Homo sapiens) (UniProt Q05586+Q12879). The test can be described thus: Antagonist activity at GluN1/GluN2A NMDA receptor (unknown origin) transfected in HEK293 cells assessed as inhibition of glycine induced current response at 10 uM in presence of L-glutamate by patch-clamp method. The class given is cell-based.
Test [8] relates to Rattus norvegicus. The test is described as follows: Neuroprotective activity in Sprague-Dawley rat model of middle cerebral artery occlusion-induced ischemia-reperfusion injury assessed as decrease in cerebral infarction rate at 20 mg/kg, po measured 24 hrs post injury by TTC staining based histological analysis. Details: scale not given: the % may be the effect or the level left. The format is functional.

For another test, the target named is Glutamate NMDA receptor. The test is described as follows: Displacement of [3H] ifenprodil from Wistar rat glutamate NMDA receptor incubated for 2 hrs by scintillation counting method. The format is protein-complex assay. (In general: In a radioligand displacement assay an active substance lowers the binding of a labelled ligand.)
Test [9] deals with Rattus norvegicus. The test can be described thus: Neuroprotective activity in Sprague-Dawley rat model of middle cerebral artery occlusion-induced ischemia-reperfusion injury assessed as decrease in neurological score at 20 mg/kg, po measured 24 hrs post injury by TTC staining based histological analysis. The class given is functional.

In the case of `N#Cc1ccc(CN2CCN(CCCC3OC(=O)c4ccccc43)CC2)cc1` (stereo unspecified), the Activity in test [1] is on record as 49.49%; in [2], 60.33%; in [3], 54.83%.

On to `CN(C)CCC1OC(=O)c2ccccc21` (stereo unspecified), for which the values for the Activity in test [1], in test [2] and in [3] were 56.09%, 73.56% and 71.66%, respectively.

Turning to `COc1ccc(CN2CCN(CCCC3OC(=O)c4ccccc43)CC2)cc1OC` (stereo unspecified), the Activity came to 46.58% in test [1], 48.44% in test [2] and 47.16% in test [3].

For the compound `O=C1OC(CCCN2CCOCC2)c2ccccc21` (stereo unspecified), the results for the Activity in test [1], in test [2] and in test [3] were 57.15%, 76.22% and 65.19%, respectively.

Turning to `O=C1OC(CCCN2CCN(Cc3ccncc3)CC2)c2ccccc21` (stereo unspecified), the results for the Activity in test [1], in test [2] and in test [3] were 57.55%, 75.54% and 66.35%, respectively.

`O=C1OC(CCCN2CCN(Cc3ccc(Cl)cc3)CC2)c2ccccc21` (stereo unspecified): the values for the Activity in test [1], in [2] and in [3] were 49.49%, 60.33% and 54.83%, respectively.

As to `O=C1OC(CCCN2CCCC2)c2ccccc21` (stereo unspecified), the results for the Activity in test [1], in [2] and in [3] were 56.53%, 73.16% and 65.3%, respectively.

`O=C1OC(CCCN2CCN(Cc3ccc(C(F)(F)F)cc3)CC2)c2ccccc21` (racemic): the inhibition in [4] was 10.3%; in test [5] it was 75.4%; in [6], 12%; in test [7], 26.6%.

Turning to `O=C1OC(CCCN2CCN(Cc3cccnc3)CC2)c2ccccc21` (stereo unspecified), the results for the Activity in test [1], in test [2] and in test [3] were 51.84%, 63.33% and 55.95%, respectively.

Consider `O=C1OC(CCCN2CCN(Cc3ccc(Br)cc3)CC2)c2ccccc21` (stereo unspecified), for which the Activity in test [1] was determined as 46.12%; in test [2] it was 46.13%; in test [3] it was 45.56%.

As for `Cc1cccc(CN2CCN(CCCC3OC(=O)c4ccccc43)CC2)c1` (stereo unspecified), the Activity is given as 53.08% in [1], 67.43% in [2] and 61.15% in test [3].

`O=C1OC(CCCN2CCN(Cc3ccc(F)c(F)c3)CC2)c2ccccc21` (stereo unspecified): the Activity was found to be 57.3% in test [1], 75.45% in [2] and 65.4% in test [3].

With `O=C1OC(CCCN2CCN(Cc3ccc(C(F)(F)F)cc3)CC2)c2ccccc21` (single isomer, unassigned; enantiomer B) [listing 1 of 2 here], the inhibition is 20.3% in test [4], 81% in [5], 16.2% in test [6] and 25.9% in test [7].

`O=C1OC(CCCN2CCN(Cc3cccc([N+](=O)[O-])c3)CC2)c2ccccc21` (stereo unspecified): the results for the Activity in test [1], in test [2] and in [3] were 53.23%, 73.28% and 69.03%, respectively.

Regarding `O=C1OC(CCCN2CCC(CO)CC2)c2ccccc21` (stereo unspecified), the figures for the Activity in test [1], in test [2] and in test [3] were 60.19%, 78.14% and 74.86%, respectively.

In the case of `O=C1OC(CCCN2CCN(Cc3ccc4ccccc4n3)CC2)c2ccccc21` (stereo unspecified), the Activity in [1] amounted to 49.69%; in test [2], 62.96%; in test [3] it was 55.95%.

For `O=C1OC(CCCN2CCN(Cc3ccc([N+](=O)[O-])cc3)CC2)c2ccccc21` (stereo unspecified), the Activity in [1] came to 66.55%; in the test on Rattus norvegicus [8], 14.53%; with Rattus norvegicus [9], 1.75; in test [2], 88.35%; in test [3], 79.64%. For the same compound, at Glutamate NMDA receptor, the affinity, expressed as Ki, was 4.55 nM.

On to `O=C1OC(CCCN2CCN(Cc3cccc(Cl)c3)CC2)c2ccccc21` (stereo unspecified), for which the Activity was determined as 49.69% in test [1], 62.96% in test [2] and 55.95% in test [3].

Turning to `O=C1OC(CCCN2CCN(Cc3ccc(F)cc3)CC2)c2ccccc21` (stereo unspecified), the Activity in test [1] is 52.58%; in [2] it was 72.2%; in test [3], 64.11%.

In the case of `O=C1OC(CCCN2CCC(Cc3ccccc3)CC2)c2ccccc21` (stereo unspecified), the Activity in test [1] turned out to be 49.13%; in test [2], 79.12%; in [3], 78.13%.

In the case of `O=C1OC(CCCN2CCN(Cc3ccc(C(F)(F)F)cc3)CC2)c2ccccc21` (single isomer, unassigned; enantiomer B) [listing 2 of 2 here], the Activity in test [1] (0.1 µM) amounted to 65.86%; in [2] (10 µM) it was 81.82%; in test [3] (1 µM), 81.02%.

In the case of `O=C1OC(CCCN2CCCCC2)c2ccccc21` (stereo unspecified), the Activity is 63.96% in [1], 77.85% in [2] and 70.2% in test [3].

Regarding `O=C1OC(CCCN2CCN(Cc3ccccn3)CC2)c2ccccc21` (stereo unspecified), the Activity in test [1] was 57.46%; in [2], 74.65%; in [3], 67.89%.

As for `CS(=O)(=O)c1ccc(CN2CCN(CCCC3OC(=O)c4ccccc43)CC2)cc1` (stereo unspecified), the Activity in test [1] is 50.17%; in test [2] it was 61.02%; in test [3] it was 55.51%.

In the case of `O=C1OC(CCCN2CCN(Cc3ccc(C(F)(F)F)cc3)CC2)c2ccccc21` (single isomer, unassigned; enantiomer A) [listing 1 of 2 here], the inhibition is 16.7% in test [4], 71.9% in test [5], 14.9% in [6] and 23.4% in test [7].

With `O=C1OC(CCCN2CCN(Cc3ccc(C(F)(F)F)cc3)CC2)c2ccccc21` (single isomer, unassigned; enantiomer A) [listing 2 of 2 here], the Activity is 62.81% in test [1] (0.1 µM), 81.02% in [2] (10 µM) and 71.91% in [3] (1 µM).

For `O=C1OC(CCCN2CCC(O)CC2)c2ccccc21` (stereo unspecified), the results for the Activity in test [1], in test [2] and in test [3] were 58.83%, 77.13% and 67.72%, respectively.

`CN(C)CCCC1OC(=O)c2ccccc21` (stereo unspecified): the results for the Activity in [1], in test [2] and in test [3] were 48.37%, 78.18% and 77.37%, respectively.

Turning to `Cc1ccc(CN2CCN(CCCC3OC(=O)c4ccccc43)CC2)cc1` (stereo unspecified), the Activity in test [1] is 51.66%; in [2], 68.38%; in [3], 64.44%.

Turning to `O=C1OC(CCCN2CCc3sccc3C2)c2ccccc21` (stereo unspecified), the Activity in [1] is 49.39%; in [2], 66.52%; in [3], 61.1%.

Consider `O=C1OC(CCCN2CCN(Cc3ccccc3)CC2)c2ccccc21` (stereo unspecified), for which the figures for the Activity in test [1], in [2] and in test [3] were 67.64%, 81.91% and 79.85%, respectively. On Glutamate NMDA receptor, this compound returned a Ki of 13.6 nM.

For the compound `O=C1OC(CCN2CCCC2)c2ccccc21` (stereo unspecified), the Activity was determined as 57.21% in [1], 70.66% in test [2] and 66.34% in test [3].

`O=C1OC(CCN2CCc3sccc3C2)c2ccccc21` (stereo unspecified): the Activity is reported as 45.88% in test [1], 66.05% in test [2] and 58.81% in test [3].

With `CCCCC1OC(=O)c2ccccc21` (stereo not drawn) [RAC-3-N-BUTYLPHTHALIDE], the Activity came out at 55.71% in test [1]; 18.81% in the test with Rattus norvegicus [8]; 2.13 in the test with Rattus norvegicus [9]; 73.45% in test [2]; 57.94% in [3]. The same compound gave a Ki on Glutamate NMDA receptor of 14.8 nM.

For the compound `CC(C(O)c1ccc(O)cc1)N1CCC(Cc2ccccc2)CC1` (stereo unspecified) [IFENPRODIL], the Activity in [1] is 65.93%; in the test on Rattus norvegicus [8], 14.35%; with Rattus norvegicus [9], 1.75; in [2], 85.83%; in test [3], 76.98%. Besides, the inhibition in test [4] was 18.1%; in test [5], 135%; in test [6], 28.8%; in test [7] it was 13.1%.

For orientation: inhibition means the change of the read-out against control, counted positive when it falls. The Ki is the equilibrium dissociation constant of an inhibitor or competing ligand from its target.
